For the series the following is noted: 101.33 kPa, Liquid, Pycnometric method.

Data on two molecules can be found in the NIST ThermoML archive (doi:10.1016/j.jct.2008.12.003).

Each structure is given as a SMILES string. Numbers after ± are expanded uncertainties.

In the case of `OCCOCCO` [diethylene glycol], the mass density – broadly, the mass of a sample divided by its volume – runs as follows: (303.15 K) 1109 ± 1 kg/m3; (313.15 K) 1103 ± 1 kg/m3; (323.15 K) 1095 ± 1 kg/m3; (333.15 K) 1088 ± 1 kg/m3; (343.15 K) 1081 ± 1 kg/m3.
Turning to `OCCCOCCCO` [4-oxa-1,7-heptanediol], the mass density is, setting by setting: (303.15 K) 1014 ± 1 kg/m3; (313.15 K) 1007 ± 1 kg/m3; (323.15 K) 999 ± 1 kg/m3; (333.15 K) 991 ± 1 kg/m3; (343.15 K) 984 ± 1 kg/m3.
